This is an account of results in a melting point compilation (Tetko et al.; mined from patent text by program, amines drawn as free bases though some values may be those of a salt).

One may read the melting point as the temperature, or range, at which the solid turns liquid. Regarding `Nc1nc2cccnc2c2c1nc(CF)n2CC1(O)CCOC1` (stereo not given), the melting point lay in the range of 209 to 210 °C.
In the case of `O=C(OC1c2ccccc2C(=O)N1c1ccc2ccc(Cl)nc2n1)N1CCN(C=S)CC1` (stereo not given) it was 295 °C.
In the case of `COc1ccc2[nH]c(S(=O)Cc3cc(N(C)C)c(F)cn3)nc2c1` (stereo not given) it was 99 to 102 °C; in that of `O=C(c1ccc(-c2ccccc2)cc1)N1Cc2ccccc2Nc2ccccc21`, 180 to 182 °C; in that of `CCOC(=O)CCc1cc(C(=O)c2ccc(C(=O)OCC)cc2)ccc1OCCCCCBr`, 76.5 to 78 °C.
Take `CN1C(=O)CC(c2c(-c3ccc[nH]3)[nH]c3ccc(O)cc23)C1=O` (stereo not given): the melting point was 148 to 154 °C.
The value for `CC(C)(C)c1cc(C(=O)COc2ccc(C(=O)OCc3ccccc3)c(O)c2)ccc1OCc1ccccc1` was 91 to 93 °C.
In the case of `O=C(c1ccc(F)cc1)c1ccc(C#Cc2ccc(F)cc2)cc1` it was 190 to 191 °C; in that of `CC(C)c1ccc2ccc(N)nc2n1`, 158 to 160 °C; in that of `Cc1cc(O)c(S(=O)Cc2ccccc2)c(=O)o1` (stereo not given), 150 to 153 °C.
The value for `O=C1CCc2ccc(O)cc2O1` was 133 to 136 °C.
Compound `Nc1ccc(-c2nc(-c3ccco3)no2)c(Cl)c1` had a melting point of 175 to 176 °C.
In the case of `CCOC(=O)c1c(O)c2ccc(C)nc2n(C)c1=O` it was 143 to 145 °C; in that of `CC1=C(C#N)C(c2cccc3ncc(Cc4ccccc4)cc23)C(C(=O)OC(C)C)=C(C)N1` (stereo not given), 188 to 190 °C.
The value for `Cc1nn2ccccc2c1SC#N` was 111 to 113 °C; that for `O=C(O)c1c[nH]c2c1C(=O)CCCC2` was 225 to 227 °C; that for `CCOC(=O)c1c(C)nn(-c2cccc(N)c2)c1C` was 93 to 95 °C.
`CNC(=O)c1ccc(=O)n(CCNC(=O)c2cccnc2)c1` yielded a melting point of 208 to 210 °C.
In the case of `CCn1nc(Cc2c(Cl)cncc2Cl)c2ccc(OC)cc2c1=O` it was 150 to 151 °C; in that of `O=C(Nc1ccc(C2=CCN(Cc3ccccc3)CC2)cc1)c1ccccc1-c1ccccc1`, 142 °C.
The value for `CCN(CC)CCSC1=C(C#N)C(c2ccccc2)(c2cccc(C(F)(F)F)c2)C(=O)N1` (stereo not given) was 127 °C; that for `CN(C)c1ccc(NC(=O)N(C[C@H]2CCC[C@H](CN(C(=O)Nc3ccc(N(C)C)cc3)C3CCCCCC3)C2)C2CCCCCC2)cc1` (relative stereo) was 109 to 114 °C.
For the compound `CCN(CC)c1ccc(N=c2scc(-c3ccc(Cl)c(S(=O)(=O)N(C)C)c3)n2C)cc1`, the melting point is 184 to 185 °C.
The value for `Cc1ccccc1Oc1cccc(CCC(=O)O)c1O` was 106 to 107 °C; that for `C#CCOc1noc2ccc(N3C(=O)C4=C(CCCC4)C3=O)cc12` was 147 to 148 °C.
In the case of `Cc1cccc(-c2nc3ccc(OCCCN4CCCC4)cc3n2Cc2ccccc2)c1` it was 120 °C; in that of `CCOc1ccc(C(=O)NCc2ccc3c(c2)C(=O)N(C2(C)CCC(=O)NC2=O)C3=O)nc1` (stereo not given), 145 to 147 °C.
The value for `O=C1C2Cc3c(nc(Br)n3Cc3ccccc3)CN2C(=O)N1c1ccccc1` (stereo not given) was 267 to 269 °C.
`CCO[C@@H](Cc1ccc(OCCN2CCC(C)(C)c3cc(C(=NOC)c4ccc(C(=O)O)cc4)ccc32)cc1)C(=O)O` yielded a melting point of 83 to 85 °C.
The value for `O=C1NC(=O)c2c1c(-c1ccccc1Cl)cc1c2c2cc(O)ccc2n1CCS(=O)c1ncn[nH]1` (stereo not given) was 237 to 242 °C.
The value for `N#Cc1ccc2c(c1)CC[C@@H]1CC(=O)CC[C@@]21Cc1ccccc1` was 128 to 129 °C; that for `O=C(O)COc1c(I)cc(-c2c3ccccc3cc3sc4ccccc4c23)cc1I` was 250 to 252 °C; that for `N#Cc1cnn2c(C(F)(F)F)cc(-c3ccc(F)cc3F)nc12` was 149 °C.
In the case of `C=C(CCC)C(=O)c1ccc(OCCCC(=O)O)c(Cl)c1Cl` it was 85 to 87 °C.
As to `O=C1C2CCCCC2C(=O)N1c1ccncc1` (stereo not given), the melting point was in the range of 165 to 168 °C.
The value for `Cc1cccc2c(C=O)cc(C(C)C)c(O)c12` was 125 to 128 °C; that for `CCN1CN(c2ccc(Cl)cc2)c2ncccc2C1=O` was 100 to 101 °C.
`CC1(C)CC(=O)C(Cc2ccc(Cl)cc2)C(=O)C1` yielded a melting point of 188 to 190 °C.
In the case of `CCOC(=O)CC(=O)Cc1ccc(Br)cc1[N+](=O)[O-]` it was 78 to 80 °C.
On to `O=C1CN(Cc2cccc(I)c2)S(=O)(=O)N1`, for which the melting point fell in the range of 101 to 103 °C.
The value for `COc1noc2c(C)cc(C#CCCN3CCOC3=O)cc12` was 94 to 95 °C; that for `CCc1ccc(C#CC(C)N(O)C(=O)NC)cc1` (stereo not given) was 126 to 128 °C.
The value for `N#Cc1c(N)nc2ccc(N3CCN(Cc4ccccc4)CC3)cc2c1O` was 291 °C; that for `COc1cc(C=C2C(=O)CCc3cc(Cl)ccc32)c([N+](=O)[O-])cc1OC` was 56 to 58 °C.
With `CC(C)(Oc1ccc(CCCOc2ccc(-c3ccccc3)cc2)cc1)C(=O)O`, the melting point lay in the range of 130 to 133 °C.
In the case of `COc1ccc(-c2ccccc2)c(NC(=N)N2CCOCC2)c1` it was 140 to 142 °C.
`CCCCCNc1cccc2c1CN(C1CCC(=O)NC1=O)C2=O` (stereo not given) gave a melting point of 244 to 246 °C.
`NC(=NOCC1CC1)c1c(C(F)(F)F)ccc(C(F)(F)F)c1Cl` showed a melting point of 75 to 80 °C.
The value for `CCCCCCCCc1ccc(C=CCO)cc1` was 30 °C.
In the case of `CCC(=O)N1CCC(NC(=O)Nc2cccc(C(F)(F)F)c2)CC1` it was 153 to 154 °C.
In the case of `CCNC(=O)c1cnn(C)c1[Si](C)(C)C` it was 77 to 81 °C; in that of `N#Cc1cccc(Br)c1CBr`, 90 to 93 °C; in that of `CC1=C(c2ccc(C#N)c3ccccc23)CCC1O` (stereo not given), 113 to 114 °C.
Turning to `CC(C)(Oc1ccccc1S(C)(=O)=O)C(=O)O`, the melting point lay in the range of 114 to 116 °C.
`N#Cc1cc(N)ccc1OC1CCCCC1` gave a melting point of 59 °C.
In the case of `Nc1nc2c(s1)CCN(CC=Cc1ccc(OCc3ccccc3)cc1)CC2`, the melting point lay in the range of 135 to 140 °C.
The value for `NC(=S)c1cn(C2OC(CO)C(O)C2O)nn1` (stereo not given) was 152 to 154 °C; that for `O=C(O)c1oc2cc(O)ccc2c(=O)c1C(=O)O` was 255 to 257 °C.
The value for `CCCc1cc(C(O)=S)cc(N)c1-c1ccccc1` was 190 to 191 °C.
Turning to `C=C[C@H]1CN(c2c(F)cc3c(=O)c(C(=O)O)cn4c3c2OC[C@@H]4C)C[C@H]1N`, the melting point was in the range of 238 to 240 °C.
In the case of `O=C(C=Cc1cccc(S(=O)(=O)NCc2ccc3c(c2)OCO3)c1)NO` it was 163 °C.
Compound `CN(C)CC(C(O)c1ccc([N+](=O)[O-])cc1)N1CCC(Cc2ccccc2)CC1` (stereo not given) had a melting point of 132 to 135 °C.
Compound `NS(=O)(=O)c1ccc(F)cc1` displayed a melting point of 123 to 125 °C.
In the case of `CS(=O)(=O)c1ccc(-c2cnn(-c3ccc(F)c(F)c3)c(=O)c2C2CCCCC2)cc1` it was 80 to 83 °C; in that of `COc1cc(OCC(=O)O)c(C)cc1SCc1ccc(-c2ccc(Cl)c(Cl)c2)cc1`, 161 to 162 °C.
